Data published in patent US5719287A, “Intermediates for inhibitors of HIV protease and method of preparation thereof” (Eli Lilly and Company, priority 1995, dated 1998).

Assays:
HIV-1 protease [1] = molecular target: T1, HIV-1 protease (Human immunodeficiency virus type 1 group M subtype B, UniProt P04585); assay: biochemical; settings: read-out: Fluorescence Assay IC50 (converted)
T1 construct: Purified HIV-1 protease was obtained as described below; made in house; host or cells: E. coli K12 L507/pHP10D (NRRL B-18560)
How it was run: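 Purified recombinant HIV-1 protease from E. coli preincubated 1 h at room temperature with compound in 20% aqueous DMSO, then biotin-peptide-FITC substrate added in MES-ALB buffer for 16 h at room temperature. Cleavage measured by avidin-bead capture, fluorescence ex 485/em 535 nm.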

HIV-1 protease [2] = molecular target: T1, HIV-1 protease; assay: Western Blot Analysis of HIV Protease Inhibition Assay (HIV-1 protease produced in E. coli, processing of gag polyprotein Pr48^gag); assay type: biochemical; settings: yield of p17 from gag polyprotein; 30 min preincubation at room temperature, one hour at 37° C.
Protocol: The compounds of the present invention were also tested for their ability to block HIV protease processing of Pr48^gag (a recombinant polyprotein containing p 17, p24 and p7).
A. Culture of E. coli K12 L507/DHP10D
Lyophils of E. coli K12 L507/pHP10D are obtained from the Northern Regional Research Laboratory, Peoria, Ill. 61604, under the accession number NRRL B-18560 (deposited Nov. 14, 1989). The lyophils are decanted into tubes containing 10 ml LB medium (10 g Bacto-tryptone, 5 g Bacto-yeast extract, and 10 g NaCl per liter; pH is adjusted to 7.5) and incubated at 32° C., overnight.
A small portion of the overnight culture was placed on LB-agar (LB medium with 15 g/l Bacto-agar) plates containing 12.5 μg/ml tetracycline in a manner so as to obtain a single colony isolate of E. coli K12 L507/pHP10D.The single colony obtained was inoculated into 10 ml of LB medium containing 12.5 μg/ml tetracycline and incubated overnight at 32° C. with vigorous shaking. The 10 ml overnight culture was inoculated into LB medium containing 12.5 μg/ml tetracycline and incubated at 32° C. with vigorous shaking until the culture reached mid-log phase.
B. Culture of E. coli K12 L507/pHGAG
Lyophils of E. coli K12 L507/pHGAG are obtained from the NRRL under the accession number NRRL B-18561 (deposited Nov. 14, 1989). A purified colony of E. coli K 12 L507/pHGAG was isolated, and used as an inoculum for a culture which was grown to mid-log phase in substantial accordance with the teaching of Step A above for E. Coli K12 L507/pHP10D.
C. Preparation of Protease and gag fractions
A culture of E. coli K12 L507/pHP10D was grown to mid-log phase at 32° C. in LB media containing 12.5 μg/ml tetracycline. The cultivation temperature was quickly elevated to 40° C. to induce gene expression, and the cells were allowed to grow for 2.5 hours at this temperature before the culture was quickly chilled on ice. The cells were centrifuged and the cell pellet was resuspended in 20 ml 50 mmol MES buffer (pH 6.0) containing 1 mmol EDTA, 1 mmol DTT, 1 mmol PMSF, and 10% glycerol (Buffer A). Cells were lysed by sonication using a Fischer Model 300 Dismembrator and a microtip probe. […] Enzymatic activity was measured by HPLC using the synthetic peptide SQNYPIV as described in Margolin et al., Biochem. Biophys. Res. Commun., 167, 554-560 (1990); the production of the pl peptide (SQNY) was measured.
Active fractions were pooled, made 1.2M in ammonium sulfate, and applied to a hexyl agarose column (2.0×18 cm) equilibrated in Buffer A containing 1.2M ammonium sulfate. The sample, in 125 ml (1.85 mg/ml), was loaded at a flow rate of 1 ml/min at 4° C. […] The column was then washed isocratically in Buffer A for 120 min. Active fractions were pooled, concentrated to 10 ml using an Amicon stirred cell with a YM-10 membrane, and applied at 1 ml/min to a MonoS cation exchange column (1.0×10 cm) equilibrated in Buffer A. After washing isocratically for 30 min, protease was eluted using a linear gradient of 0-0.45M NaCl in Buffer A over 40 min followed by an isocratic wash with Buffer A containing 0.45M NaCl over 30 min. Chromatography was performed at 25° C.
Pooled active fractions were concentrated to 200 ul using an Amicon stirred cell and a YM-10 membrane, and the protease was then applied to a Superose 6 size exclusion column equilibrated in Buffer A containing 0.1M NaCl. The column was washed isocratically in this buffer at a flow rate of 0.5 ml/min.
QAE-Sepharose, and hexyl agarose were purchased from Sigma Chemical Company. Superose 6 and MonoS were products of Pharmacia. Buffers and reagents were obtained from Sigma.
In an analogous manner, a culture of E. coli K12 507/pHGAG was grown to mid-log phase at 32° C. then shifted to 40° C. for about 4 to 5 hours. The culture was chilled on ice and centrifuged, then the pellet was resuspended in 8 ml lysis buffer containing 5 mg/ml lysozyme.

[3] = purified HIV-1 protease, MES-ALB buffer pH 5.5, 1 h preincubation, 16 h with substrate, room temperature, IC50 values for Examples 2-70 are standardized relative to Ex 1

SMILES | IC50 (HIV-1 protease [1]; [3]) | IC50 (HIV-1 protease [2]) | IC50 (HIV-1 protease [1])
CC(C)(C)NC(=O)c1ccccc1C[C@@H](O)[C@H](Cc1ccccc1)NC(=O)[C@H](CC(N)=O)NC(=O)COc1cccc2ccccc12 [Example 15, [2R-(2R*, 3S*, 6S*)]-N-t-butyl-2-(2-hydroxy-3-phenylmethyl-4,7-diaza-5,8,-dioxo-6-(2-amino-2-oxoethyl)-9-(naphthyloxy)nonyl)benzamide] | 4.23 nM | 1.6 nM | 
CC(C)(C)NC(=O)c1ccccc1C[C@@H](O)[C@H](Cc1ccccc1)NC(=O)[C@H](CC(N)=O)NC(=O)c1nccc2ccccc12 [Example 13] | 13.1 nM | 9 nM | 
CCC(C)(C)NC(=O)c1ccccc1C[C@@H](O)[C@H](Cc1ccccc1)NC(=O)[C@H](CC(N)=O)NC(=O)c1ccc2ccccc2n1 [Example 8, [1S-(1R*, 4R*, 5S*)]-N-(1-(2-amino-2-oxoethyl)-2-oxo-3-aza-4-phenylmethyl-5-hydroxy-6-(2-(1-(1.1-dimethylpropylamino)-1-oxomethyl)phenyl)hexyl)-2-quinolinyl carboxamide] |  | 1.5 nM | 4.81 nM
CC(C)(C)NC(=O)c1c(C[C@@H](O)[C@H](Cc2ccccc2)NC(=O)[C@H](CC(N)=O)NC(=O)c2ccc3ccccc3n2)ccc2ccccc12 [Example 4, [1S-(1R*, 4R*, 5S*)]-N-(1-(2-amino-2-oxoethyl)-2-oxo-3-aza-4-phenylmethyl-5-hydroxy-6-(1-(1-t-butylamino-1-oxomethyl)-2-naphthyl)hexyl)-2-quinolinyl carboxamide] |  | 2.7 nM | 4.4 nM
CC(C)[C@H](NC(=O)c1ccc2ccccc2n1)C(=O)N[C@@H](Cc1ccccc1)[C@H](O)Cc1ccccc1C(=O)NC(C)(C)C [Example 16, [1S-(1R*, 4R*, 5S*)]-N-(1-(2-propyl)-2-oxo-3-aza-4-phenylmethyl-5-hydroxy-6-(2-(1-t-butylamino-1-oxomethyl)phenyl)hexyl)-2-quinolinyl carboxamide] |  | 1 nM | 57.2 nM
CC(C)(C)NC(=O)c1ccccc1C[C@@H](O)[C@H](Cc1ccccc1)NC(=O)[C@H](Cc1cnc[nH]1)NC(=O)c1ccc2ccccc2n1 [Example 17, [1S-(1R*, 4R*. 5S*)]-N-(1-(4-imidazolylmethyl)-2-oxo-3-aza-4-phenylmethyl-5-hydroxy-6-(2-(1-t-butylamino-1-oxomethyl)phenyl)hexyl)-2-quinolinyl carboxamide] |  | 0.5 nM | 1.9 nM
CC(C)(C)NC(=O)c1ccccc1C[C@@H](O)[C@H](Cc1ccccc1)NC(=O)[C@H](CC(N)=O)NC(=O)c1nc2ccccc2[nH]1 [Example 14, [1S-(1R*, 4R*, 5S*)]-N-(1-(2-amino-2-oxoethyl)-2-oxo-3-aza-4-phenylmethyl-5-hydroxy-6-(2-(1-t-butylamino-1-oxomethyl)phenyl)hexyl)-2-benzimidazolyl carboxamide] |  | 100 nM | 142 nM
Cc1cccc(C[C@@H](O)[C@H](Cc2ccccc2)NC(=O)[C@H](CC(N)=O)NC(=O)c2ccc3ccccc3n2)c1C(=O)NC(C)(C)C [Example 3, [1S-(1R*, 4R*, 5S*)]-N-(1-(2-amino-2-oxoethyl)-2-oxo-3-aza-4-phenylmethyl-5-hydroxy-6-(2-(1-t-butylamino-1-oxomethyl)-3-methylphenyl)hexyl)-2-quinolinyl carboxamide] |  | 60 nM | 28.9 nM
Cc1ccc(C[C@@H](O)[C@H](Cc2ccccc2)NC(=O)[C@H](CC(N)=O)NC(=O)c2ccc3ccccc3n2)c(C(=O)NC(C)(C)C)c1 [Example 2, [1S-(1R*, 4R*, 5S*)]-N-(1-(2-amino-2-oxoethyl)-2-oxo-3-aza-4-phenylmethyl-5-hydroxy-6-(2-(1-t-butylamino-1-oxomethyl)-4-methylphenyl)hexyl)-2-quinolinyl carboxamide] | 3.37 nM | 50 nM | 
CC(C)(C)NC(=O)c1ccccc1C[C@@H](O)[C@H](Cc1ccccc1)NC(=O)[C@H](CC(N)=O)NC(=O)c1cc2ccccc2cn1 [Example 30, [1S-(1R*, 4R*, 5S*)]-N-(1-(2-amino-2-oxoethyl)-2-oxo-3-aza-4-phenylmethyl-5-hydroxy-6-(2-(1-t-butylamino-1-oxomethyl)phenyl)hexyl)-3-isoquinolinyl carboxamide] |  |  | 11.8 nM
Cc1cccc2ccc(C(=O)N[C@@H](CC(N)=O)C(=O)N[C@@H](Cc3ccccc3)[C@H](O)Cc3ccccc3C(=O)NC(C)(C)C)nc12 [Example 24, [1S-(1R*, 4R*, 5S*)]-N-(1-(2-amino-2-oxoethyl)-2-oxo-3-aza-4-phenylmethyl-5-hydroxy-6-(2-(1-t-butylamino-1-oxomethyl)phenyl)hexyl)-8-methylquinolin-2-yl carboxamide] |  |  | 0.481 nM
CC(C)(C)NC(=O)c1ccccc1C[C@@H](O)[C@H](Cc1ccccc1)NC(=O)[C@H](CC(N)=O)NC(=O)COc1ccc2ccccc2n1 [Example 32, [1S-(1R*, 4R*, 5S*)]-N-(1-(2-amino-2-oxoethyl)-2-oxo-3-aza-4-phenylmethyl-5-hydroxy-6-(2-(1-t-butylamino-1-oxomethyl)phenyl)hexyl)-2-quinolinoxy acetamide] |  |  | 3.75 nM
CC(C)(C)NC(=O)c1ccccc1C[C@@H](O)[C@H](Cc1ccccc1)NC(=O)[C@H](CC(=O)NCc1ccccn1)NC(=O)c1ccc2ccccc2n1 [Example 45, [1S-[1R*, 4R*, 5S*)]-N-(1-(2-(N-2-pyridylmethyl)amino)-2-oxoethyl]-2-oxo-3-aza-4-phenylmethyl-5-hydroxy-6-(2-(1-t-butylamino-1-oxomethyl)phenyl)hexyl)-2quinolinyl carboxamide] |  |  | 1.26 nM
